We go through 9 compounds from patent US9156852B2, “Thieno[3,2-D]pyrimidine derivatives having inhibitory activity for protein kinases” (HANMI PHARM. CO., LTD, priority 2011, dated 2015).

The target in one assay is DDR1 (Homo sapiens (Human), UniProt Q08345). Description: DDR1 kinase activity, Kinase Screening and Profiling Service (Invitrogen). It is filed as biochemical. How it is done: (§1) As such, the compounds prepared in Examples were tested for inhibitory activity against FMS, DDR1 and DDR2 kinases using Kinase Screening and Profiling Service (Invitrogen, U.S.).
Chain of DDR1 (Q08345 19-913): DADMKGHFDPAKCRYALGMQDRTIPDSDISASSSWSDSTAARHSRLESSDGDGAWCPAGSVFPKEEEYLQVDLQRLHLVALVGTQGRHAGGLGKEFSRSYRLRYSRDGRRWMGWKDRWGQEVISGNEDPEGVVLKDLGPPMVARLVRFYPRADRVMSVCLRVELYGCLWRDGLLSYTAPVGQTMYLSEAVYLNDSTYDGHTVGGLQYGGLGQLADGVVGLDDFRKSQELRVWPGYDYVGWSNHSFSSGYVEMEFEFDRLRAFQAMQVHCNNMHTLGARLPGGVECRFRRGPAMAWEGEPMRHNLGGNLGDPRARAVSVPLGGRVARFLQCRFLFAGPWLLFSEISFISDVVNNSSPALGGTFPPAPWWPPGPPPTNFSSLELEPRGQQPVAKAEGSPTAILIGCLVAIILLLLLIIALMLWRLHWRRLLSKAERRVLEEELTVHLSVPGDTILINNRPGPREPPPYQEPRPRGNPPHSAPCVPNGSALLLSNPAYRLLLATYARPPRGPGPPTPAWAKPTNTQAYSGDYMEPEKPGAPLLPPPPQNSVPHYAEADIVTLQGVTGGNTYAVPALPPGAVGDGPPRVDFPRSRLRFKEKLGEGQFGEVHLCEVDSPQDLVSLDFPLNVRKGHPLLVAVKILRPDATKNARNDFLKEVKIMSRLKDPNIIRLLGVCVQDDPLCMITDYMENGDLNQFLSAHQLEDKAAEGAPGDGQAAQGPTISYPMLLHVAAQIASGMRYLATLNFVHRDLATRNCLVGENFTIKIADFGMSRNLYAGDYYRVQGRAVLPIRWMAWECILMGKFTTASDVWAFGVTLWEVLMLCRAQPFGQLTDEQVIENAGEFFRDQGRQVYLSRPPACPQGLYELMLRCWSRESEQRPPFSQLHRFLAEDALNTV
Another assay concerns the target FMS (Homo sapiens (Human), UniProt P07333). Kind of assay: FMS kinase activity, Kinase Screening and Profiling Service (Invitrogen). The assay is classed as biochemical. How it is done: as §1
Assay [1] has as its system SK-Mel-2 cells (N-RAS mutant melanoma). Description: Inhibition on cell growth of N-RAS mutant cell SK-Mel-2 (SRB). It is filed as cell-based. The note with it: Homo sapiens, 72 hours, SRB staining, described as GI50 in the method. As for the experimental part:
N-RAS mutant cells, SK-Mel-2 cell lines (ATCC #HTB-68™), were obtained from ATCC (American Type Culture Collection: Rockville, Md.). SK-Mel-2 cell lines were incubated in a MEM medium supplemented with 10% FBS and 1% penicillin/streptomycin (Gibco BRL) under 37° C., 5% CO2 and 95% air. The cell lines were transferred into 96-well plates at a density of 5,000 cells/well, and cultured for 18 hours or more. The cells were treated with […]˜0.1 nM of test compounds, and cultured for 72 hours.
To evaluate cell viabilities, SK-Mel-2 cell lines were fixed with 10% TCA (trichloroacetic acid), stained with SRB (sulfohodamine B), and an absorbance was measured at 540 nm. Then, GI50, i.e., the concentration of drug to cause 50% reduction in proliferation of cancer cells, were calculated therefrom. The growth rates of cancer cells were calculated by Equation 1 or 2. [(Ti−Tz)/(C−Tz)]×100 (for Ti>=Tz) [Equation 1] [(Ti−Tz/Tz)×100 (for Ti<Tz) [Equation 2]
(§2) In Equations 1 and 2, ‘Tz’ refers to a density of untreated cells, which is an absorbance in 0% cell growth groups. ‘C’ refers to a density of cells cultured by adding only medium, and ‘Ti’ refers to a density of cells treated with test compounds.
GI50 value is the concentration of a test compound when the value of Equation 1 is 50, which indicates the concentration of test compound needed to reduce the growth of cancer cells to 50%. On each measurement, test compounds were compared with a control.

A further assay addresses DDR2 (Homo sapiens (Human), UniProt Q16832). Kind of assay: DDR2 kinase activity, Kinase Screening and Profiling Service (Invitrogen). It is filed as biochemical. As for the experimental part:
as §1

Assay [2] has as its system HepG2 cells (N-RAS mutant hepatoma carcinoma cell). Description: Inhibition on cell growth of N-RAS mutant cell HepG2 (SRB). It is filed as cell-based. The note with it: Homo sapiens, 72 hours, SRB staining, described as GI50 in the method. How it is done: N-RAS mutant cells HepG2 cells (HCC) cell lines (ATCC # HB-8065™), were obtained from ATCC (American Type Culture Collection: Rockville, Md.). HepG2 cell lines were incubated in a MEM medium supplemented with 10% FBS and 1% penicillin/streptomycin (Gibco BRL) under 37° C., 5% CO2 and 95% air. The cell lines were transferred into 96-well plates at a density of 5,000 cells/well, and cultured for 18 hours or more. The cell lines were treated with […]˜0.1 nM of test compounds, and cultured for 72 hours.
To evaluate cell viabilities, HepG2 cell lines were fixed with 10% TCA (trichloroacetic acid), stained with SRB (sulfohodamine B), and an absorbance was measured at 540 nm. Then, GI50, i.e., the concentration of drug to cause 50% reduction in proliferation of cancer cells, were calculated therefrom. The growth rates of cancer cells were calculated by Equation 1 or 2. [(Ti−Tz)/(C−Tz)]×100 (for Ti>=Tz) [Equation 1] [(Ti−Tz/Tz)×100 (for Ti<Tz) [Equation 2]
as §2
GI50 value is the concentration of test compound when the value of Equation 1 is 50, which indicates the concentration of test compound needed to reduce the growth of cancer cells to 50%. On each measurement, test compounds were compared with a control.

The target in another assay is B-RAF normal type (Homo sapiens (Human), UniProt P15056). Kind of assay: RAF kinase activity, Kinase Profiling Service (Invitrogen). The assay is classed as biochemical. As for the experimental part: (§3) The levels of enzymatic inhibition of the compounds were calculated as percent inhibition at various concentrations. Based on percent inhibition, dose-response curves were plotted using GraphPad Prism software.
Chain of B-RAF normal type (P15056 whole entry): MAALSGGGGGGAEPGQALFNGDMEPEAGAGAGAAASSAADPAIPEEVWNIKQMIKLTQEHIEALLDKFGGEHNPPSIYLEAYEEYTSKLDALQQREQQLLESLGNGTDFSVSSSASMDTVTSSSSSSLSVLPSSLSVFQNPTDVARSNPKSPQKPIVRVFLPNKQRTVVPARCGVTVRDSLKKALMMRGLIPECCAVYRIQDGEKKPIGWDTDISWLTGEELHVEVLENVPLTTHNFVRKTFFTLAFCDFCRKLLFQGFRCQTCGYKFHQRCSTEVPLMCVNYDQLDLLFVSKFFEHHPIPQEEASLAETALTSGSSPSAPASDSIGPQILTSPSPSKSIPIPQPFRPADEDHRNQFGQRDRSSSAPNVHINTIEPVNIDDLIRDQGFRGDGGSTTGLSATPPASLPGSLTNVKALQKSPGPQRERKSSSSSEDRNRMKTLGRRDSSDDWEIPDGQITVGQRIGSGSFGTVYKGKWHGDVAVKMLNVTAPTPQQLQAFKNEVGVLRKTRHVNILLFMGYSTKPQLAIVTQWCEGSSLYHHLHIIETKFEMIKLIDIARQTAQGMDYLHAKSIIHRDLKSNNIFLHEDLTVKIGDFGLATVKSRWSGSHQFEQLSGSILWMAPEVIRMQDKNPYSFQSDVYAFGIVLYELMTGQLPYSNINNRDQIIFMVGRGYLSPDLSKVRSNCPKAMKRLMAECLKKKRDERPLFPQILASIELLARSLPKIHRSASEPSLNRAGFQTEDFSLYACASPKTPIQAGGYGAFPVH

Another assay addresses RAF1 Y340D Y341D (C-RAF) (Homo sapiens (Human), UniProt P04049, Y340D/Y341D). Described as above. It is filed as biochemical. How it is done: as §3
The next assay addresses B-RAF^V600E (Homo sapiens (Human), UniProt P15056, V600E). Described as above. It is filed as biochemical. The note with it: B-RAF V600E mutant; read-out: B-RAFv^600E (IC50). How it is done:
as §3

Chain of DDR2 (Q16832 22-855): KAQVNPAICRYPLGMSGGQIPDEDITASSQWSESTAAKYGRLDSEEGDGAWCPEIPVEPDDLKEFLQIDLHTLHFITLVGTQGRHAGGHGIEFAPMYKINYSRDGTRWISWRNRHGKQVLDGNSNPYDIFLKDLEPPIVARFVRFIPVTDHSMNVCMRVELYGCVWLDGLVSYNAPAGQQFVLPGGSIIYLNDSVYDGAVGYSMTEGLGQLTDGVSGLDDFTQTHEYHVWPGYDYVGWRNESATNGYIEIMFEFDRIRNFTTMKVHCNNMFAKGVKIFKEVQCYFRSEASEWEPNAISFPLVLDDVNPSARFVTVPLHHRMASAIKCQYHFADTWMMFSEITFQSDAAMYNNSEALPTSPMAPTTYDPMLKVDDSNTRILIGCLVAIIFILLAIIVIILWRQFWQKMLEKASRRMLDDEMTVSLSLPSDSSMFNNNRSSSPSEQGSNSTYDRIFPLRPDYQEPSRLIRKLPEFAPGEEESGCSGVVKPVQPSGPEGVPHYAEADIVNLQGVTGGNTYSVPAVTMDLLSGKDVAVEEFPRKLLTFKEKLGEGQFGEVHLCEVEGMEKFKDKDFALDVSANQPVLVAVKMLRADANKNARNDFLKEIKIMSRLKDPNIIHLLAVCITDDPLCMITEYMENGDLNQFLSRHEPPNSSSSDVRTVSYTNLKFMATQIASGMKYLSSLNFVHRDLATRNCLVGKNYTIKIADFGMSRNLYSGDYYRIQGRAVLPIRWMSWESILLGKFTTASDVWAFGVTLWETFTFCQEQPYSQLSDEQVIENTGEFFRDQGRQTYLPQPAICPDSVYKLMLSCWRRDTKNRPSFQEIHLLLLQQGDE
Chain of RAF1 Y340D Y341D (C-RAF) (P04049 whole entry Y340D/Y341D): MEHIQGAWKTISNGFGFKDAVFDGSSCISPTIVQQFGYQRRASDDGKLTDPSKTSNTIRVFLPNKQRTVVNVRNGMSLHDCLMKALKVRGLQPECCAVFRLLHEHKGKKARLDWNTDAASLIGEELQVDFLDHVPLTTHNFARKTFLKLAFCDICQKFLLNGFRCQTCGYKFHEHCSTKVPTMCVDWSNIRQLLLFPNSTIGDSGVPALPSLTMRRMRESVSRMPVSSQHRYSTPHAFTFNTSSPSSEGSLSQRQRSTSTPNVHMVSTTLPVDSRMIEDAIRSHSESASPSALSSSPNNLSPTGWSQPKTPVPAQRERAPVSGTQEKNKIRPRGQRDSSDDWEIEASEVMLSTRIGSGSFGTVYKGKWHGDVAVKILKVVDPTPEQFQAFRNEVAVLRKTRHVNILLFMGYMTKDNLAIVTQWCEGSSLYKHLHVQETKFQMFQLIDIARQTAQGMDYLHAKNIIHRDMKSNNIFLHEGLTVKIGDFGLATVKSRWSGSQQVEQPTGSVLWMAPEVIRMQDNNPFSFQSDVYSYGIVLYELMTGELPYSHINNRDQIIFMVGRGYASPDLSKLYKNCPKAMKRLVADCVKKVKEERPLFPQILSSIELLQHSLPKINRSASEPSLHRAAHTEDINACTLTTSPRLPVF
Chain of FMS (P07333 20-972): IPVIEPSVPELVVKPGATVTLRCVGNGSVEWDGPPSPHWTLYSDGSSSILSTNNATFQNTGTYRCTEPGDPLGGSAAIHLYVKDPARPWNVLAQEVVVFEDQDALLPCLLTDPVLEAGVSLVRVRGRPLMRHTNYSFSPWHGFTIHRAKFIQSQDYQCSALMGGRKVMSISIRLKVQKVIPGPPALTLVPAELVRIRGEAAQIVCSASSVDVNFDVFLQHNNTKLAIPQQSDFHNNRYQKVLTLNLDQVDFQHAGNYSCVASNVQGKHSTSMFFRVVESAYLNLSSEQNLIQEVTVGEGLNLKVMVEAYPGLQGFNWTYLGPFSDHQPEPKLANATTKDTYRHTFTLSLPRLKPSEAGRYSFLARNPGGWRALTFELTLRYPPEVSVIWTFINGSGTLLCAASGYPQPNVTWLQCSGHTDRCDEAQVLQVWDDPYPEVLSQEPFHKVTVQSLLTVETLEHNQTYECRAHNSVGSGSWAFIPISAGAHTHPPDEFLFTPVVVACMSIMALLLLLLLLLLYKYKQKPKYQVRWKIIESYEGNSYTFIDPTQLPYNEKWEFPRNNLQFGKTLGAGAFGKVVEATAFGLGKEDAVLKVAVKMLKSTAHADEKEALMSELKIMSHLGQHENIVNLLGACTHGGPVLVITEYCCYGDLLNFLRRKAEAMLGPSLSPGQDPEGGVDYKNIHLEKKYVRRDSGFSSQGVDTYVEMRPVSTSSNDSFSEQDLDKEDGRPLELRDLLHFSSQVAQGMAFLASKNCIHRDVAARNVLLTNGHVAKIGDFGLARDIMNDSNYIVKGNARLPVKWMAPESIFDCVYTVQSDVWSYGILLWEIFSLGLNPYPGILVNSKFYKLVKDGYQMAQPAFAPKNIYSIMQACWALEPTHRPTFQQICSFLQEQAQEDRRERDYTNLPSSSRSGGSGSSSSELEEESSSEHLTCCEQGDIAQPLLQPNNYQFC
Chain of B-RAF^V600E (P15056 whole entry V600E): as the sequence (P15056 whole entry) above, with V600E counted along it

In the case of `CCCS(=O)(=O)Nc1ccc(F)c(C(=O)c2c[nH]c3ncc(-c4ccc(Cl)cc4)cc23)c1F` [Control, Vemurafenib, reference compound], the IC50 (against DDR1; against FMS; in assay [1]; against DDR2; in assay [2]) was more than 1000 nM throughout.

Consider `COc1ccc(Nc2nccc3c(NC(=O)c4csc5c(N)ncnc45)c(C)ccc23)cc1` [Example 16, 4-amino-N-(1-((4-methoxyphenyl)amino)-6-methylisoquinolin-5-yl)thieno[3,2-d]pyrimidine-7-carboxamide], for which the IC50 in assay [1] came out at 52 nM; in assay [2], 24 nM; on B-RAF normal type it was 15 nM; against RAF1 Y340D Y341D (C-RAF), 5 nM; at B-RAF^V600E, 32 nM.

On to `Cc1ccc2c(Nc3ccc(OC(F)F)cc3)nccc2c1NC(=O)c1csc2c(N)ncnc12` [Example 50, 4-amino-N-(1-((4-(difluoromethoxy)phenyl)amino)-6-methylisoquinolin-5-yl)thieno[3,2-d]pyrimidine-7-carboxamide], for which the IC50 in assay [1] came out at 163 nM; in assay [2], 44 nM; at B-RAF normal type, 128 nM; on RAF1 Y340D Y341D (C-RAF), 32 nM; on B-RAF^V600E, 26 nM.

As to `Cc1ccc2c(Nc3ccc(Cl)cc3)nccc2c1NC(=O)c1csc2c(N)ncnc12` [Example 1, 4-amino-N-(1-((4-chlorophenyl)amino)-6-methylisoquinolin-5-yl)thieno[3,2-d]pyrimidine-7-carboxamide], the IC50 stood at 2 nM against DDR1; 1 nM at FMS; 56 nM in assay [1]; 5 nM at DDR2; 27 nM in assay [2]; 121 nM at B-RAF normal type. Further, the IC50 against RAF1 Y340D Y341D (C-RAF) was 23 nM; at B-RAF^V600E, 22 nM.

Regarding `Cc1ccc2c(Nc3ccc(Cl)c(CN(C)C)c3)nccc2c1NC(=O)c1csc2c(N)ncnc12` [Example 59, 4-amino-N-(1-((4-chloro-3-((dimethylamino)methyl)phenyl)amino)-6-methylisoquinolin-5-yl)thieno[3,2-d]pyrimidine-7-carboxamide], the IC50 in assay [1] came out at 236 nM; in assay [2], 47 nM; against B-RAF normal type it was 42 nM; at RAF1 Y340D Y341D (C-RAF) it was 6 nM; on B-RAF^V600E, 7 nM.

`Cc1ccc2c(Nc3cccc(Cl)c3)nccc2c1NC(=O)c1csc2c(N)ncnc12` [Example 38, 4-amino-N-(1-((3-chlorophenyl)amino)-6-methylisoquinolin-5-yl)thieno[3,2-d]pyrimidine-7-carboxamide]: the IC50 in assay [1] turned out to be 97 nM; in assay [2], 41 nM.

In the case of `Cc1ccc2c(Nc3cccc(Cl)c3F)nccc2c1NC(=O)c1csc2c(N)ncnc12` [Example 116, 4-amino-N-(1-((3-chloro-2-fluorophenyl)amino)-6-methylisoquinolin-5-yl)thieno[3,2-d]pyrimidine-7-carboxamide], the IC50 against DDR1 stood at 23 nM; against FMS, 10 nM; in assay [1] it was 76 nM; against DDR2 it was 44 nM; in assay [2], 38 nM; against B-RAF normal type, 56 nM. The values for the concentration for half-maximal inhibition (IC50) on RAF1 Y340D Y341D (C-RAF) and at B-RAF^V600E were 5 nM and 7 nM, respectively.

Regarding `CC(=O)c1ccc(Nc2nccc3c(NC(=O)c4csc5c(N)ncnc45)c(C)ccc23)cc1` [Example 83, N-(1-((4-acetylphenyl)amino)-6-methylisoquinolin-5-yl)-4-aminothieno[3,2-d]pyrimidine-7-carboxamide], the IC50 is 5 nM at DDR1; 4 nM at FMS; 60 nM in assay [1]; 10 nM at DDR2; 30 nM in assay [2]; 12 nM against B-RAF normal type. In addition, the IC50 is 7 nM on RAF1 Y340D Y341D (C-RAF) and 5 nM on B-RAF^V600E.

As for `Cc1ccc2c(Nc3ccc(F)c(Cl)c3)nccc2c1NC(=O)c1csc2c(N)ncnc12` [Example 105, 4-amino-N-(1-((3-chloro-4-fluorophenyl)amino)-6-methylisoquinolin-5-yl)thieno[3,2-d]pyrimidine-7-carboxamide], the IC50 at DDR1 was 71 nM; against FMS, 50 nM; in assay [1], 210 nM; against DDR2 it was 181 nM; in assay [2] it was 90 nM; against B-RAF normal type it was 179 nM. Also, the values for the IC50 against RAF1 Y340D Y341D (C-RAF) and on B-RAF^V600E were 15 nM and 31 nM, respectively.
